Here are results for 79 compounds from the METLIN SMRT retention time set (Domingo-Almenara et al. 2019).

The nature of the series: gradient 5% acetonitrile 3 min, to 50% in 2 min, to 85% in 15 min, held 3 min, 100 µL/min. Conditions: column: Zorbax Extend-C18 2.1 x 50 mm; eluents: water / acetonitrile, 0.1% formic acid. The essentials: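 Pure standards were analyzed in mixtures of ~100 molecules using HPLC coupled to a quadrupole time-of-flight mass spectrometer, in both positive and negative ionization mode. Separation used a Zorbax Extend-C18 column (2.1 × 50 mm, 1.8 μm) at 100 μL/min, with water and acetonitrile each containing 0.1% formic acid. Dead and dwell volumes were 40 μL and 900 μL, and data were collected over 3 months. Retention time was read from computationally picked adduct peaks, each inspected manually.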
Regarding `COCCNC(=O)NC1CCN(c2nc3cccnc3n(Cc3ccccc3)c2=O)CC1`, the RP-LC retention time came out at 806 s.
The result for `CCOC(=O)C1=C(CN(C)Cc2ccccc2)NC(=O)NC1c1ccccc1` (centres undefined) reads 652 s; that for `COc1ccc(NC(=O)C2CC(=O)N(c3ccc4c(c3)CCN4C(C)=O)C2)cc1OC` (centres undefined), 642 s.
The result for `COCCOCc1nc(C2CCCN2C(=O)c2cccs2)no1` (centres undefined) reads 690 s.
In the case of `CCc1nncn1C1CCN(S(=O)(=O)c2cc(F)ccc2C)CC1` it was 658 s.
`CCOc1cc(C(=O)Nc2ccc(Cl)c(-c3nc4ccccc4[nH]3)c2)cc(OCC)c1OCC` registered an RP-LC retention time of 967 s.
The result for `CN1CCCc2cc(C(=O)NCc3cccnc3)sc21` reads 592 s; that for `O=C(Cn1cnc(-c2noc(-c3ccncc3)n2)c1)N1CCc2ccccc21`, 634 s; that for `CCOC(=O)c1c(S(=O)(=O)N2CCC(C(=O)N3CCc4ccccc4C3)CC2)c(C)n(C)c1C`, 872 s.
On to `Cc1ccc(-c2nc(-c3ccc4c(c3)nc(C)c(=O)n4C)no2)cc1F`, for which the RP-LC retention time turned out to be 1150 s.
The result for `CSc1ccc(-c2nc3cnccn3c2Nc2cccc(C(=O)NC(C)C)c2)cc1` reads 784 s.
In the case of `COc1cc(C(=O)C(=O)c2ccc(O)c(OC)c2)ccc1O` it was 758 s.
For the compound `CCCn1cc(C(=O)NCCC(C)C)c2nn(-c3ccccc3)c(=O)c-2c1`, the RP-LC retention time was 968 s.
The result for `CCCN1CCC(c2cccc(S(C)(=O)=O)c2)CC1` reads 600 s; that for `Cc1ccccc1Nc1c(-c2c(F)cccc2Cl)nc2ccc(Br)cn12`, 997 s; that for `COc1ccc2nc(C)cc(NCCCCCCCCCNc3cc(C)nc4ccc(OC)cc34)c2c1`, 670 s.
In the case of `COc1ccc(C2Cn3cnc(C(=O)N4CCC(C(=O)Nc5cc(C)cc(C)c5)CC4)c3CO2)cc1` (centres undefined) it was 751 s; in that of `CN(CC1CCOC1)C(=O)c1ccccc1Cl` (centres undefined), 681 s.
`CS(=O)(=O)N1CCC(C(=O)NCC2CCN(C(=O)Oc3ccccc3)CC2)CC1` registered an RP-LC retention time of 663 s.
In the case of `Cc1noc(C2(NC(=O)Cc3ccccc3C)CCCCC2)n1` it was 884 s.
In the case of `CCOC(=O)Nc1ccc2c(c1)CN(C(C)=O)CC2` it was 628 s; in that of `Cc1ccc(NC(=O)C2CCc3nc(N4CCCCC4)ncc3C2)cc1` (centres undefined), 822 s.
In the case of `CSC1=C(C#N)C(c2ccco2)C(C(=O)Nc2ccccc2C)=C(C)N1` (centres undefined) it was 786 s; in that of `CCC(=O)Nc1ccc(S(=O)(=O)NCCc2ccc(N(C)C)cc2)c(C)c1`, 570 s; in that of `Cc1cccc(CNC2=NCCNC23CCN(S(=O)(=O)c2c(C)cc(C)cc2C)CC3)c1`, 846 s.
The compound `CCc1ccc(OCC(=O)Nc2nc(-c3ccc(F)cc3F)cs2)cc1` returned an RP-LC retention time of 1260 s.
`CCC(=O)N(C1CCOCC1)C1CCN(S(=O)(=O)c2ccc(F)cc2F)CC1`: the RP-LC retention time turned out to be 998 s.
The result for `CCN1CCCC1CNC(=O)C1c2cc(OC)c(OC)cc2C(=O)N(C)C1c1ccc(OC)cc1` (centres undefined) reads 611 s; that for `O=C(c1cccc2[nH]cc(CN3CCOCC3)c12)N1CCN(c2ccc(Cl)cc2)CC1`, 753 s.
In the case of `CC1=C(c2ccc(F)cc2)S(=O)(=O)N=C1N1CCCN(C(=O)c2ccccc2C)CC1` it was 831 s.
In the case of `COc1ccc(NS(=O)(=O)c2cc(-c3[nH]ncc3C(=O)N3CCCC3)oc2C)c(C)c1` it was 707 s; in that of `Cc1cc(=O)n(CC(=O)Nc2ccc(C)c(C)c2)c(N2CCOCC2)n1`, 697 s; in that of `O=C(CSc1ccncc1)Nc1ccc(OCc2nnc(-c3ccccc3)o2)cc1`, 884 s.
Regarding `O=C1CCN(C(=O)c2ccco2)CCCCCCN1`, the RP-LC retention time was determined as 633 s.
The result for `COc1ccc(NC(=O)NC(C)C(=O)N2CCc3ccccc32)cc1OC` (centres undefined) reads 742 s; that for `CCOc1ccc(NC(=O)N2C[C@@H](F)C[C@H]2C(=O)N2CCc3ccccc3C2)cc1`, 776 s; that for `Fc1cc(F)cc(CN2CCCN(c3ncccc3-c3nc(C4CC4)no3)CC2)c1`, 720 s.
In the case of `O=C(Cn1ncn2nc(-c3ccccc3)cc2c1=O)N1CCN(c2ccccn2)CC1` it was 620 s; in that of `Cc1ccc(-c2nnc(-c3nn(C)c4c3CN(S(=O)(=O)c3cc(F)ccc3C)CC4)o2)cc1`, 1050 s; in that of `Cc1ccc(C(=O)N2CCN(c3nnc4ccccn34)CC2)cc1F`, 647 s.
In the case of `COc1ccccc1NC(=O)Cn1c(=O)c2cc(-c3ccco3)nn2c2ncccc21` it was 804 s.
`O=C(CNC(=O)c1ccccc1)NCCSc1ccc(C(=O)Nc2ccccc2)cn1` registered an RP-LC retention time of 728 s.
The result for `CCN1CCN(c2cc(C)c3cc(NC(=O)CC4CCCC4)ccc3n2)CC1` reads 595 s; that for `O=C(C1CCN(c2nc(-c3ccc(Cl)cc3)no2)CC1)N1CCC(N2CCCCC2)CC1`, 701 s; that for `CCC1Oc2ccc(C)cc2N(CC(=O)NCCN2CCc3ccccc3C2)C1=O` (centres undefined), 698 s.
The result for `Cc1ccc2nc3sc(C(=O)N4CCN(c5ccccn5)CC4)cc3cc2c1` reads 664 s; that for `CN(C)c1ccc(-c2noc(CCC(=O)N3CCC4(CC3)OCCO4)n2)cc1`, 789 s.
`Cc1nnc2c(N3CCN(c4ccccn4)CC3)nc3ccc(C(=O)c4ccccc4)cc3n12` returned an RP-LC retention time of 672 s.
Turning to `CS(=O)(=O)N1CCc2nn(Cc3ccccc3)c(=O)n2CC1`, the RP-LC retention time is 641 s.
The result for `Clc1cccc(-c2noc(Cc3nc(-c4ccc5c(c4)OCO5)cs3)n2)c1` reads 1250 s; that for `CN(C)CCCNc1oc(-c2ccc(F)cc2)nc1S(=O)(=O)c1ccccc1`, 678 s; that for `COC(=O)c1c(C)[nH]c(C(=O)N2CCC(CC(=O)NCc3ccccc3F)CC2)c1C`, 743 s.
For `CCSc1nnc(-c2nn(C)c3c2CN(C(=O)c2c(F)cccc2F)CC3)n1C`, the RP-LC retention time came out at 746 s.
The result for `Cc1nc2c(NC(=O)c3ccc(C(F)(F)F)s3)cccn2n1` reads 900 s.
The result for `COC(=O)C1=CN(c2ccc(N(C)C)cc2)c2ccccc2S1(=O)=O` reads 883 s.
Turning to `COc1cccc(-c2cc3n(n2)C(NCCc2cccs2)CNC3=O)c1` (centres undefined), the RP-LC retention time was 838 s.
The result for `COCCCNC(=O)c1nnc(-c2ccc(S(=O)(=O)N(C)C)cc2)o1` reads 717 s; that for `CCOc1nc2ccccc2nc1N1CCCC(C(=O)NCc2ccco2)C1` (centres undefined), 1020 s.
In the case of `CCCNc1cc(N2CCC(CCC(=O)Nc3ccc(OC)cc3)CC2)ncn1` it was 682 s.
Turning to `CCN1CCN(C(=O)CCc2cc(OC)c(OC)c(OC)c2)c2cccnc21`, the RP-LC retention time was found to be 613 s.
In the case of `Cc1cccc(N2CCN(Cc3nc(-c4ccc(N5CCCC(C)C5)nc4)no3)CC2)c1` (centres undefined) it was 1100 s; in that of `CCc1cccc(NS(=O)(=O)c2cc3n(c2)CCCNC3=O)c1`, 690 s; in that of `Cc1ccc(-c2noc(-c3nc(Cc4ccc(F)cc4)no3)n2)cc1`, 1180 s.
In the case of `COc1ccc(-c2coc3cc(OCC(=O)O)ccc3c2=O)cc1` it was 765 s; in that of `Cc1ccc(-n2c(=O)c3c(cc(C)n3C)n(CC(=O)Nc3c(C)cc(C)cc3C)c2=O)cc1`, 626 s; in that of `Cc1ccc(F)cc1NC(=O)CSc1ccc(N2CCCC(C(=O)NC3CC3)C2)nn1` (centres undefined), 664 s.
`Cc1cc(N2CCN(C)CC2)nc2ccc(NC(=O)NCCc3ccccc3)cc12` registered an RP-LC retention time of 614 s.
In the case of `O=C(c1cc2ccccc2[nH]1)N1CCCn2nc(-c3cccs3)cc2C1` it was 899 s; in that of `COC(=O)c1ncn2c1C(=O)N(CCC1=CCCCC1)C(C)(C(=O)NCc1ccccc1)C2` (centres undefined), 821 s.
In the case of `COc1ccc(-c2cc(NS(C)(=O)=O)n(C3CCS(=O)(=O)C3)n2)cc1` (centres undefined) it was 696 s; in that of `CCN1CCN(C(=O)CN2C(=O)CCCc3cc(S(=O)(=O)N4CCC(C)CC4)ccc32)CC1`, 643 s.
`Cc1sc(NC(=O)CSc2nnc(COc3ccccc3)o2)nc1-c1ccccc1` had an RP-LC retention time of 877 s.
In the case of `CCN1c2ccc(C)cc2C(=O)NC12CCN(C(=O)c1cc(C)cc(C)c1)CC2`, the RP-LC retention time was 912 s.
In the case of `Cc1cc(C)n(-c2nc(-c3ccc(Cl)cc3)cs2)n1` it was 1420 s.
In the case of `C[C@@H](NC(=O)c1ncnc(N)c1Cl)c1ncc(C(=O)Nc2cc(C(F)(F)F)c(Cl)cn2)s1` it was 913 s; in that of `O=C(COc1ccc(F)cc1)NCC(=O)N1CCCc2ccccc21`, 850 s.
In the case of `O=C(Nc1ccc(F)cc1)C1CCCN(S(=O)(=O)c2cc(-c3noc(C4CCC4)n3)cs2)C1` (centres undefined) it was 1160 s; in that of `O=C(c1ccc(Cl)cc1)N1CCC(N(C(=O)C2CC2)C2CCOCC2)CC1`, 775 s; in that of `Cc1cc(=O)n(CC(=O)NCc2ccc(F)c(Cl)c2)c(N)n1`, 863 s.
